pEC50: −log10 of the molar value.
Tests used:
Assay in all cases: Caspase-Glo 3/7 assay
Assay type in all cases: cell-based
T47-D = conditions: Homo sapiens, T47D
From the text: (§1) Identification of tumor types that are the most sensitive to the KSP inhibitors of the present invention can be accomplished using an unbiased approach that uses several cell-based assays. The assays chosen were as follows: • CellTiter-Glo®. This is an assay designed to measure ATP concentration in a cell culture, and can be correlated to cell number. Briefly CellTiter-Glo® (Promega Corporation) is a homogeneous method using the single CellTiter-Glo® reagent to detect ATP wherein ATP in the assay drives the activity of a thermostable luciferase to create a luminescent signal which can then be measured and correlated with the number of viable cells. Briefly, for adherent cells, 1,000 to 5,000 cells/well were plated in 96-well plates (100 μl/well) and let to adhere for 24 hours before being treated with drug. For non-adherent cells, 1,000 to 10,000 cells/well were plated in 96-well plates (100 μl/well) and immediately treated with drug. Drug dilutions were prepared in DMSO at 1000 times the final concentration. These dilutions were then diluted 1/100 in growth media before being added to the cells (11 μl/well) to achieve the desired final concentration. After 48 h in a 37° C. tissue culture incubator, the plates were processed for the CellTiter-Glo®assay according to the manufacturer's instructions. Protocol for a 72 hour cell proliferation assay: The 72 hour assay was performed the same way as the 48 hour assay except for the following modifications: For adherent cells, 500 to 5,000 cells/well were plated in 96-well plates (90 μl/well cell growth media) and left to adhere for 24 hours before being treated with drug. For non-adherent cells, 1,000 to 10,000 cells/well were plated in 96-well plates (90 μl/well cell growth media) and immediately treated with drug. Data values presented represent the concentration of test compound required for a 50% reduction in growth. • LDH release. The Cytotoxicity Detection KitPLUS (LDH) assay (Roche Diagnostics, Manheim, Germany) measures the amount of LDH released in the media by dying cells; LDH catalyzes the conversion of lactate into pyruvate. The enzymatic reaction is coupled to a chemical reaction that uses a tetrazolium salt to form a formazan that is red and can be detected by its absorbance at 490 nm. This assay measures the amount of cell death after drug treatment. Cells were plated at 10,000 cells/well in 96-well plates (100 μl/well). Adherent cells were let to adhere for 24 hours before being treated with drug, whereas non-adherent cells were immediately treated with drug. Drug dilutions were prepared in DMSO at 1000 times the final concentration. These dilutions were then diluted 1/100 in growth media before being added to the cells (11 μl/well) to achieve the desired final concentration. After 48 h in a 37° C. tissue culture incubator, the plates were processed for the Cytotoxicity Detection KitPLUS (LDH) assay according to the manufacturer's instructions. The media only values were subtracted from all the data points before analysis. Data values presented correspond to the compound concentration wherein LDH output is at half maximal level. • Caspase-Glo® 3/7. The Caspase-Glo® 3/7 Assay (Promega Corporation) is a homogeneous luminescent assay that measures caspase-3/7 activities. The assay provides a proluminescent caspase-3/7 DEVD-aminoluciferin substrate and a thermostable luciferase in a reagent optimized for caspase-3/7 activity, luciferase activity and cell lysis. Adding the single Caspase-Glo® 3/7 Reagent results in cell lysis, followed by caspase cleavage of the substrate. This liberates free aminoluciferin, which is consumed by the luciferase, generating a luminescent signal. The signal is proportional to caspase-3/7 activity. Data values presented correspond to the compound concentration wherein caspase 3/7 activity is at half maximal level.

Colo-205 = conditions: Homo sapiens
From the text: as §1

MV4; 11 = conditions: Homo sapiens
From the text: as §1

## CC(C)(C)[C@H](c1nc(-c2cc(F)ccc2F)cn1Cc1ccccc1)N(CC[C@H](N)CF)C(=O)CO [Compound IIa]
T47-D; 48 h
  pEC50: 9.41
T47-D; 72 h
  pEC50: 9.40
Colo-205; Colo-205, 24 h
  pEC50: 9.89
Colo-205; Colo-205, 48 h
  pEC50: 9.68
Colo-205; Colo-205, 72 h
  pEC50: 9.72
MV4; 11; MV4;11, 24 h
  pEC50: 10.70
MV4; 11; MV4;11, 48 h
  pEC50: 10.52
